According to patent US20080255134A1 (Artesian Therapeutics, Inc., priority 2004, published 2008):
Entries after “also recorded” stand apart in the source; their conditions may differ.

How the values were obtained:
[1] = target: beta-receptors from rat cortical membranes; assay: Non-specific β-receptor radioligand binding, [3H]DHA; conditions: read-out: Non-selective β-adrenergic IC50
Description: Non-selective β-adrenergic and β1-adrenergic radioligand binding assays were performed using rat cortical membranes; β2-adrenergic receptor assays were performed using membranes isolated from CHO cells expressing human, recombinant b2-adrenergic receptor; non-selective α1-adrenergic receptor assays were performed using rat forebrain membranes; and PDE3 binding assays were performed on human platelets. Values in percent illustrate percent inhibition at 1000 nM concentration.

[2] = tested on: White New Zealand male rabbits; assay: In vivo hemodynamic effects of compounds administered alone (Protocol 2); set-up: species or system rabbit
Description: Studies were performed on White New Zealand male rabbits (2-3 kg weight). Animals were initially anesthetized with ketamine (50 mg/kg; IM) and xylazine (6 mg/kg, IM). Subsequently, animals were intubated (via tracheotomy; 3 mm tube) and ventilated with 2% isoflurane (mixed in 95% O2+5% CO2). Each rabbit was instrumented for LV pressure (3F Millar catheter) through right carotid artery, arterial pressure (3F catheter, Cook Instruments) through left femoral artery, which was connected to a fluid-filled pressure transducer (BD Instruments), and ECG. Both pressure transducers were zeroed against atmospheric pressure, and calibrated before each study using an analog manometer. Upon completion of instrumentation, isoflurane was reduced to 1.25%, and the animal was covered for maintenance of body core temperature. Arterial and LV blood pressures (LVP) and the ECG signals were simultaneously digitally recorded on a PC. The recording system (Gould Instruments) and the corresponding software (Ponema, Gould Instruments) facilitated detailed calculation of various parameters directly from all signals and record on a separate file with a 1 sec resolution. Upon completion of the study protocol, rabbits were euthenized by isoflurane overdose (5% for at least 1 minute) and cardiac arrest through IV infusion of 5 ml 3 molar potassium chloride.
Once the physiological variables were stable, effects of each drug on hemodynamics and ECG were determined based on two different protocols: 1) infusion of a compound of the present invention to determine the effects of the compound itself mainly on contractility, and other hemodynamic indices; and 2) infusion of a compound of the present invention while the system was challenged with 0.5 ug/kg isoproterenol to determine the beta-adrenergic antagonism properties of each tested compound.
White New Zealand male rabbits (2-3 kg) were anesthetized and ventilated (95% O2+5% CO2) with 1.25% isoflurane. Each animal was instrumented for LV pressure (Millar, through left carotid artery), arterial pressure (left femoral artery), infusion (jugular vein), and electrocardiogram. The animals were administered intravenously based on one of these protocols:
Protocol 2: PDE3 inhibition (effects of compounds when administered alone).

[3] = tested on: naive anesthetized canines; assay: Contractility in naive anesthetized canines (protocol 2); format: in vivo, canine; conditions: administered alone (protocol 2), FIG. 17
[4] = tested on: human fetal cardiac fibroblasts; assay: Cyclic-AMP production by fluorescence (intrinsic sympathomimetic activity); format: cell-based; conditions: IBMX (750 μM) present; compared to isoproterenol or forskolin; any concentration tested
Description: The effect of Compound 8c on cyclic-AMP production was determined in human fetal cardiac fibroblasts by fluorescence, presented in FIG. 18 as [F−Fo)/Fo], mean±SEM, N=4. IBMX (750 μM) was present in all assays.

[5] = tested on: White New Zealand male rabbits; assay: In vivo β-adrenergic blockade, isoproterenol challenge (Protocol 1); set-up: species or system rabbit; dose or concentration left out as unconfirmed; conditions: during isoproterenol challenge, intravenous, FIG. 10

IC50 [1]: 3 nM
SMILES: O=C1CCC(c2ccc(OCCNCC(O)COc3cccc4[nH]c5ccccc5c34)c(Cl)c2)=NN1 (racemic) [Compound 25, 6-(4-{2-[3-(9H-Carbazol-4-yloxy)-2-hydroxy-propylamino]-ethoxy}-3-chloro-phenyl)-4,5-dihydro-2H-pyridazin-3-one]
heart rate when administered alone ([2]; Protocol 2, with and without atropine and bilateral vagotomy (FIG. 16)): minimal effect on heart rate; also recorded: did not increase heart rate
left ventricular contractility when administered alone ([2]; protocol 2, relative to control, FIGS. 2, 12): increased or maintained contractility in a dose-dependent manner
contractility in naive anesthetized canines [3]: increased contractility in a dose-dependent manner
intrinsic sympathomimetic activity (cyclic-AMP production) [4]: neither Compound 8c nor Compound 25 possessed intrinsic sympathomimetic activity
β-adrenergic antagonism on left ventricular contractility [5]: potent dose-dependent β-adrenergic antagonism
